# Measurements published in patent US7166472B2, “Method for the identification of agents that inhibit or promote cataracts and uses thereof” (The General Hospital Corporation, priority 2000, dated 2007).
# Changes are numbered by the printed parent chain.
# B1: 3-HAA: α-crystallin: calf lens α-crystallin modified (tanned) by reaction with 3-HAA, free metabolite removed by dialysis (protein, UniProt P02470 1-173; P02510 1-175, looked up)
# Alpha-crystallin A chain: MDIAIQHPWFKRTLGPFYPSRLFDQFFGEGLFEYDLLPFLSSTISPYYRQSLFRTVLDSGISEVRSDRDKFVIFLDVKHFSPEDLTVKVQEDFVEIHGKHNERQDDHGYISREFHRRYRLPSNVDQSALSCSLSADGMLTFSGPKIPSGVDAGHSERAIPVSREEKPSSAPSS
# Alpha-crystallin B chain: MDIAIHHPWIRRPFFPFHSPSRLFDQFFGEHLLESDLFPASTSLSPFYLRPPSFLRAPSWIDTGLSEMRLEKDRFSVNLDVKHFSPEELKVKVLGDVIEVHGKHEERQDEHGFISREFHRKYRIPADVDPLAITSSLSSDGVLTVNGPRKQASGPERTIPITREEKPAVTAAPKK
# modifications: modified with 3-hydroxyanthranilic acid
# notes: calf lens α-crystallin modified (tanned) by reaction with 3-HAA, free metabolite removed by dialysis
# Tests used:
# [1] = Hydrogen peroxide assay (DCF fluorometric); assay type: biochemical; conditions: for hydrogen peroxide generated: ambient gas conditions, CHELEX-treated PBS, FIG. 4C
# Protocol: Hydrogen Peroxide Assay—The fluorometric assay for hydrogen peroxide is based on the dichlorofluorescein diacetate (DCF) method (Molecular Probes, Eugene, Oreg.). The DCF solution (5 mM) in 100% ethanol was deacetylated in the presence of 0.01 M NaOH for 30 minutes and neutralized. Horseradish peroxidase (200 U/ml) was then added and the DCF concentration adjusted to 200 μM in PBS. The reaction solutions were carried out in PBS, pH 7.4, in a 96-well format plate (total volume=300 μL/well) and contained a test compound (KYN, 3-HK, 3-HAA, ANA, or ASC, each at 10 μM), deacetylated DCF (20 μM), and Cu(II)-glycine (1 μM) as indicated, incubated at 37° C. for 60 minutes. […] Abolition of the reading by co-incubation with catalase (1000 U/ml) was used for establishing H2O2 specificity. The fluorescent readings were recorded by a Packard FLURORCOUNT™ fluorescent plate reader with a 485 nm excitation filter and 530 nm emission filter. Concentrations were determined by comparison to a standard curve using reagent grade hydrogen peroxide in CHELEX™ chelating ion exchanae resin-treated PBS buffer, pH 7.4.
# Reactions were conducted in the absence of added Cu(II), in the presence of added glycine-complexed Cu(II) (1 μM), in the presence of added glycine-complexed Cu(II) (1 μM) and catalase (1000 U/ml), or with added glycine-complexed Cu(II) (1 μM) and the copper chelator triethylenetetramine (TETA, 200 μM).
# [2] = Cyclic voltammetry of kynurenine metabolites with Cu(II); assay type: physicochemical; conditions: metabolite 100 μM, cupric chloride 25 μM, PBS pH 7.4
# Protocol: Cyclic Voltammetry—Cyclic voltammetry was performed at room temperature (22±2° C.) on ambient solutions using an EG&G PAR potentiostat, Model 273. The potentiostat was operated in Ramp Mode, generating a potential staircase waveform with a 0.25 mV step height. The potential window of +0.15 to −0.4V, in which Cu(I) is electroactive, but the metabolites are not, was scanned in both directions at a rate of 100 mV/sec. The current response was passed through a 5.3 Hz low pass filter. A minimum of three cycles were collected for each scan, ensuring the stability of the electrochemical response. The electrochemical cell consisted of an indium/tin oxide working electrode (Delta Technologies) with an active area of 0.32 cm^2, a platinum wire auxiliary electrode, and a Ag/AgCl (1 M KCl) reference electrode (Microelectrodes Inc.). Both the auxiliary and reference electrodes were positioned in the cell in close proximity to the working electrode. The working electrodes were pretreated with successive 10 minute sonications in Alconox (˜8 g/L), 95% ethanol, Milli-Q purified H2O (2×), and PBS (pH 7.4), followed by an overnight soak in PBS (pH 7.4). The ITO electrodes were subsequently “activated” immediately prior to use by successive cycling in PBS for three cycles in each of the following potential windows: +0.15 ? −0.4 V, +0.4 ? −0.4 V, and +1.0 ? −0.4 V. Cupric chloride (25 μM; Allied Chemical) was used as the Cu(II) source. Background voltammograms were obtained on each new electrode before testing the kynurenine pathway metabolites. PBS solutions of KYN, 3-HK, ANA, and 3-HAA (each at 100 μM) were separately scanned with and without added Cu(II) (25 μM). Each experiment also included a scan of Cu(II) (25 μM) in PBS without added test compound. All solutions were tested within minutes of being prepared. Each test was repeated to ensure the reproducibility of the results.
# The voltammograms in FIGS. 3A–3D compare 3-HK and 3-HAA to their corresponding non-phenolic analogs, kynurenine (KYN) and anthranilic acid (ANA), in aqueous solutions of Cu(II) at pH 7.4. […] At potentials above +0.15 V, the metabolites undergo direct irreversible oxidation, a reaction that is not considered further here. Cyclic voltammetry of Cu(II) in PBS yielded a current response at ≈−100 mV due to reduction of the metal ion (scan “b” in each panel).
# [3] = Superoxide assay (dihydroethidium fluorometric); assay type: biochemical; conditions: for effect of Cu(II) on superoxide generation / superoxide production: test compound 10 μM; for effect of Cu(II) on superoxide generation: Cu(II)-glycine 1 μM; for superoxide production: ambient oxygen, dark, 60 minutes
# Protocol: Superoxide Assay—The fluorometric assay for superoxide is based upon the dihydroethidium (DHE, HYDROETHDNE™) method (Molecular Probes, Eugene, Oreg.) and used according to the manufacturer's instructions. DHE (1 mM) was freshly prepared in 100% argon-sparged DMSO. The reaction solutions were carried out in PBS, pH 7.4, under ambient gas conditions, in 96-well format plates and contained a test compound (KYN, 3-HK, 3-HAA, and ANA, each at 10 μM), DHE (100 μM), +/− Cu(II)-glycine (1 μM) and incubated at 37EC for 60 minutes. […] Abolition of the reading by co-incubation with superoxide dismutase (1000 U/ml) was used for establishing superoxide specificity. The fluorescent readings were recorded by a Packard FLUOROCOUNT™ fluorescent plate reader with a 510 nm excitation filter and 590 nm emission filter. Potassium superoxide dissolved in degassed DMSO was used as a positive control.
# [4] = biological target: T1, recombinant human αB-crystallin (Homo sapiens, UniProt P02511); assay: Recombinant human αB-crystallin cross-linking (SDS-PAGE, silver stain); assay type: biochemical; conditions: data not shown
# T1 construct: gift of Dr. J. Liang, Brigham and Women's Hospital
# T1 sequence (P02511 1-175): B1 Alpha-crystallin B chain with A40T, I61F, A132T, A152V
# Protocol: Various solutions containing 3-HK (10 μM) or other kynurenine pathway metabolites (10 μM), Cu(II)-glycine (10 μM), Fe(III)-citrate (10 μM), and triethylenetetramine (TETA, 200 μM), were added in combinations as indicated. […] After incubation, aliquots of the total lens protein solutions were mixed with sample buffer containing 4% SDS and 5% β-mercaptoethanol, heated to 95° C. for 5 minutes, and loaded at 1 μg/lane on a 10–20% Tricine gel (Novex, San Diego, Calif.). […] For the experiments with recombinant αB-crystallin, aliquots of the protein solutions were mixed with sample running buffer containing NuPAGE sample buffer (Novex, San Diego, Calif.) and 10% β-mercaptoethanol, heated to 95° C. for 5 minutes, spun briefly, then loaded on a NuPAGE 4–12% Bis-Tris polyacrylamide gel at 375 ng/lane and electrophoresed with denaturing 3-(N-morpholino)propanesulfonic acid (MOPS)-SDS running buffer according to the manufacturer's recommendations.
# To exclude the effects of other lens proteins on the observed findings in FIG. 5, these interactions with purified recombinant human αB-crystallin were examined.
# [5] = Metal reduction assay, Cu(II) to Cu(I) (BC/BCA indicator); assay type: biochemical; conditions: chelator 250 μM
# Protocol: Metal Reduction Assays—Assays were performed using a 96-well microtiter plate (Costar, Mass.). Test compounds from the kynurenine pathway (10 μM) or, as a positive control, ascorbic acid (ASC, 10 μM) were co-incubated with either Fe(III)-citrate (25 μM) and the Fe(II) indicator bathophenanthroline disulfonic acid (BP, 250 μM), or Cu(II)-glycine (25 μM) and the Cu(I) indicator bathocuproine disulfonic acid (BC) or bicinchoninic acid (BCA, 250 μM). Incubations were conducted in PBS, pH 7.4, at 37° C. in the dark for one hour. Absorbencies were then measured using a plate reader (SPECTRAmax Plus, Molecular Devices, CA) at the appropriate wavelengths: Fe(II)-BP complex at 535 nm (the known molar absorption coefficient, M535,=22140 M^−1 cm^−1), Cu(I)-BC complex at 483 nm, M483=12250 M^−1cm^−1), or Cu(I)-BCA complex at 562 nm, M562=7700 M^−1cm^−1). In control samples, absorbance from the metal ion and indicator in the absence of test compound and the absorbance of test compound in the presence of metal ions, but in the absence of indicator, were determined. The absorbencies from these controls were deducted from those obtained in the presence of the test compound, metal and indicator to yield the net absorbance (ΔA). Fe(II) or Cu(I) concentrations (μM) were calculated according to the formula: C(μM)=ΔA*10^6/Mλ.
# The compounds comprising the kynurenine pathway (FIG. 1) were assayed for their ability to reduce […] and Cu(II) (FIG. 2A). […] Values represent the mean±SD for three independent measurements.
# [6] = biological target: T2, α-crystallin (Bos taurus, UniProt P02470+P02510); assay: α-Crystallin modification under longwave ultraviolet illumination; assay type: biochemical; conditions: exposure of α-crystallin in the presence of longwave ultraviolet illumination
# T2 sequence (P02470 1-173): B1 Alpha-crystallin A chain
# T2 sequence (P02510 1-175): B1 Alpha-crystallin B chain
# [7] = biological target: T3, αB-crystallin (Bos taurus, UniProt P02510); assay: αB-crystallin cross-linking in total calf lens protein (Western blot); conditions: metabolite 10 μM, no added Cu(II), five days 37° C. dark
# T3 sequence (P02510 1-175): B1 Alpha-crystallin B chain
# [8] = Metal reduction capacity of tanned calf lens α-crystallin, Cu(II); assay type: biochemical; conditions: α-crystallin preparation 100 μg/ml, Cu(II)-glycine 25 μM, one hour 37° C.
# Protocol: Studies of Tanned Calf Lens Crystalin in Assay of Crystallin Protein for Metal Reduction Capacity—α-Crystallin (10 mg/ml) from calf lens was modified by reaction with 3-HK (100 μM), 3-HAA (100 μM), or ASC (100 μM) in PBS, ph 7.4, for 12 hours at 4° C. in the dark. Control samples were incubated with ascorbic acid (100 μM) or without added reductant. The tanning incubation solutions also contained triethylenetetramine (TETA, 200 μM) to prevent cross-linking of the protein. After incubation, free reductant was removed from the tanned α-crystallin preparations by exhaustive dialysis at 4EC in the dark utilizing PBS, pH 7.4, containing CHELEX™ 100 chelating ion exchange resin (BioRad, Hercules, Calif.). The various modified α-crystallin preparations (100 μg/ml) were co-incubated with either Cu(II)-glycine glycine (25 μM) or Fe(III)-citrate (25 μM) for one hour at 37° C. and assayed for metal reduction capacity using the BC and BP spectrophotometric assay as detailed above. Incubated and dialyzed α-crystallin (100 μg/ml) and untreated α-crystallin (100 μg/ml) preparations were used for procedural control.
# 3-HK: α-crystallin reduced nearly 100% of the available Cu(II) and approximately 20% of the available Fe(III). 3-HAA: α-crystallin reduced approximately 65% of the available Cu(II).
molecule,measurement,setting,value
"Nc1ccccc1C(=O)O [ANA, anthranilic acid]",hydrogen peroxide generated,[1],approx. 0.3 μM
same,Cu(II) reduction wave in presence of metabolite,[2],largely unaffected
same,effect of Cu(II) on superoxide generation,[3],did not promote
same,superoxide production,[3],negligible
"C[S+](C)[O-] [DMSO, dimethyl sulfoxide]",inhibition of αB-crystallin cross-linking by 3-HK or 3-HAA and Cu(II),[4],did not inhibit
"O=C(O)CN(CCN(CC(=O)O)CC(=O)O)CCN(CC(=O)O)CC(=O)O [DTPA, diethylenetriaminepentaacetic acid, reference compound]","effect of chelator on metal reduction by 3-HK, 3-HAA and XA",[5],abolished
"Nc1ccccc1C(=O)C[C@H](N)C(=O)O [KYN, L-kynurenine]",hydrogen peroxide generated,[1],approx. 0.3 μM
same,capacity of altered α-crystallin to reduce metal and generate hydrogen peroxide,[6],dramatically enhanced capacity
same,αB-crystallin cross-linking,[7],does not induce
same,Cu(II) reduction wave in presence of metabolite,[2],largely unaffected
same,effect of Cu(II) on superoxide generation,[3],did not promote
same,superoxide production,[3],negligible
OC[C@@H](O)[C@@H](O)[C@H](O)[C@H](O)CO [mannitol],inhibition of αB-crystallin cross-linking by 3-HK or 3-HAA and Cu(II),[4],did not inhibit
O=C(O)c1ccccc1O [salicylate],inhibition of αB-crystallin cross-linking by 3-HK or 3-HAA and Cu(II),[4],did not inhibit
catalase [reference compound],effect on hydrogen peroxide generation by 3-HK or 3-HAA,"[1]; Cu(II) 1 μM, catalase 1000 U/ml or TETA 200 μM",abolished
same,inhibition of αB-crystallin cross-linking by 3-HK or 3-HAA and Cu(II),[4],neither catalase nor superoxide dismutase were capable of inhibiting
superoxide dismutase [reference compound],inhibition of αB-crystallin cross-linking by 3-HK or 3-HAA and Cu(II),[4],neither catalase nor superoxide dismutase were capable of inhibiting
same,effect on superoxide production by 3-HAA,[3]; superoxide dismutase 1000 U/ml,removed
B1,reduction of available Cu(II),[8],approximately 65%
